Experiments:
[1] = test system: HCT16 p53+/+ (wild type) colon cancer cells; assay: MTT assay (cytotoxicity); assay type: cell-based; settings: Homo sapiens, 72 hours exposure, read-out: Anticancer Activity (IC50)
Procedure: (§1) The cytotoxicity of the several representative compounds have been evaluated using MTT assay. Briefly, cells were seeded in 96-well microtiter plates (HCT16 p53+/+ (wild type), HCTp53−/− (p53 negative) colon cancer cells and MD-MBA-435 (p53 mutant) breast cancer cells at 4,000 cells/well) and allowed to attach. Cells were subsequently treated with a continuous exposure to the corresponding drug for 72 hours. A 3-(4,5-dimethylthiazol-2-yl)-2,5-diphenyltetrazolium bromide solution (at a final concentration of 0.5 mg/mL) was added to each well, and cells were incubated for 4 hours at 37° C. After removal of the medium, DMSO was added and the absorbance was read at 570 nm. All assays were done in triplicate. The IC50 was then determined for each drug from a plot of log (drug concentration) versus percentage of cell kill.

[2] = test system: HCTp53−/− (p53 negative) colon cancer cells; assay: MTT assay (cytotoxicity); assay type: cell-based; settings: Homo sapiens, 72 hours exposure, read-out: Anticancer Activity (IC50)
Procedure: as §1

[3] = test system: MCF7 breast cells; assay: MTT assay (cytotoxicity); assay type: cell-based; settings: Homo sapiens, read-out: Anticancer Activity (IC50)
Procedure: [The procedure below names another cell line; the source lists this cell line under the same test.] as §1

[4] = test system: MD-MBA-435 (p53 mutant) breast cancer cells; assay: MTT assay (cytotoxicity); assay type: cell-based; settings: Homo sapiens, 72 hours exposure, read-out: Anticancer Activity (IC50)
Procedure: as §1

[5] = test system: MDA-MB-435 cells; assay: Drug treatment of tumor xenografts in athymic nude mice; assay type: in vivo
Procedure: 50 male athymic nude (nu/nu) mice (Charles River Laboratories, Wilmington, USA) were used for in vivo testing. The animals were fed ad libitum and kept in air-conditioned rooms at 20±2° C. with a 12 h light-dark period. Animal care and manipulation were in agreement with the University of Southern California (USC) institutional guidelines, which are in accordance with the Guidelines for the Care and Use of Laboratory Animals.
MDA-MB-435 cells from in vitro cell culture were inoculated s.c. in both flanks of athymic nude mice (2×10^6 cells/flank) under aseptic conditions. Tumor growth was assessed by biweekly measurement of tumor diameters with a Vernier caliper (length×width). Tumor weight was calculated according to the formula: TW (mg)=tumor volume (mm^3)=d^2×D/2, where d and D are the shortest and longest diameters, respectively. Cells were allowed to grow to an average volume of 100 mm^3. Animals were then randomly assigned for control and treatment groups to receive control vehicle or CT19 (10 and 20 mg/kg, dissolved in sesame oil) via i.p. injections once a day for 5 days. Treatment of each animal was based on individual body weight. After 5-day treatment, the tumor volumes in each group were measured once a week for four weeks. Treated animals were checked daily for treatment toxicity/mortality.
Assays were set up in triplicates and the results were expressed as means±SD. Statistical analysis and P-value determination were done by two-tailed paired t test with a confidence interval of 95% for determination of the significance differences between treatment groups. P<0.05 were considered to be significant. ANOVA was used to test for significance among groups. The SAS statistical software package (SAS institute) was used for statistical analysis.
The in vivo efficacy of CT19 was evaluated in nude mice inoculated with human breast MDA-MB-435 cells. Animals were treated with a daily i.p. injections of saline (controls) and CT19 at 10 mg/kg or 20 mg/kg. After five-days of dosing, the drug treatment was discontinued and the animals were monitored […].

[6] = test system: NIH 189 mouse fibroblast cells; assay: MTT assay (cytotoxicity); assay type: cell-based; settings: read-out: Anticancer Activity (IC50)
Procedure: [The procedure below names another organism; the source lists this organism under the same test.] as §1

[7] = test system: NIH3T3 mouse fibroblast cells; assay: MTT assay (cytotoxicity); assay type: cell-based; settings: read-out: Anticancer Activity (IC50)
Procedure: [The procedure below names another organism; the source lists this organism under the same test.] as §1

[8] = test system: panel of human cancer cell lines; assay: Anticancer activity in a panel of human cancer cell lines; assay type: cell-based; settings: result in words
Procedure: Anticancer activities and cell cycle perturbations induced by a number of representative compounds have been evaluated using MTT and cell cycle analysis assays.
as §1

[9] = test system: HCT116p53+/+ cells; assay: Cell cycle analysis by propidium iodide DNA staining; assay type: cell-based, human; settings: 1 μM
Procedure: Cell cycle perturbations induced by the representative compounds were analyzed by propidium iodide DNA staining. […] At the end of each treatment time, cells were collected and washed with PBS after a gentle centrifugation at 200×g for 5 minutes. Cells were thoroughly resuspended in 0.5 mL of PBS and fixed in 70% ethanol for at least 2 hours at 4° C. Ethanol-suspended cells were then centrifuged at 200×g for 5 minutes and washed twice in PBS to remove residual ethanol. For cell cycle analysis, the pellets were suspended in 1 mL of PBS containing 0.02 mg/mL of propidiumiodide, 0.5 mg/mL of DNase-free RNase A and 0.1% of Triton X-100 and incubated at 37° C. for 30 minutes. Cell cycle profiles were obtained using a FACScan flowcytometer (Becton Dickinson, San Jose, Calif.) and data were analyzed by ModFit LT software (Verity Software House, Inc., Topsham, Me.).

[10] = 10 mg/kg or 20 mg/kg daily i.p. for five days

| Compound | IC50 [1] | IC50 [2] | IC50 [3] | IC50 [4] | further results |
| --- | --- | --- | --- | --- | --- |
| C=C1C(=O)O[C@@H](c2cc(OC)c(OC)c(OC)c2-c2cc(OC)c(OC)c(OC)c2)[C@H]1C [CT19] | 1 ± 1 µM | 4 µM | 4 µM | 5 µM | Apparent toxicity [5, 10]: without apparent toxicity; Tolerability [5, 10]: well tolerated; Tumor burden in breast xenografts [5, 10]: significantly reduced tumor burden; Tumor growth (tumor weight) ([5]; 20 mg/kg daily i.p. for five days, monitored five weeks, p<0.05): significantly reduced tumor growth |
| C=C1C(=O)O[C@@H](c2ccccc2)[C@H]1c1ccccc1 [CT13, (4S,5R)-3-methylene-4,5-diphenyl-dihydrofuran-2(3H)-one] | 3 ± 3 µM | 11 ± 2 µM |  | 2 ± 2 µM |  |
| C=C(C(=O)OC)[C@H](c1ccccc1)[C@@H](O)c1ccc(C#N)cc1 (stereo in doubt) [CT21, (3S,4R)-methyl 4-(4-cyanophenyl)-4-hydroxy-2-methylene-3-phenylbutanoate] | 2 ± 1 µM | 13 ± 2 µM | 3 µM | 8 ± 2 µM |  |
| C=C1C(=O)O[C@@H](c2ccc([N+](=O)[O-])cc2)[C@H]1c1ccc(C)cc1 [CT15] | > 20 µM | > 20 µM |  | > 20 µM |  |
| C=C(C(=O)OC)[C@@H](c1ccccc1)[C@H](O)c1ccc([N+](=O)[O-])cc1 [CT22] | 1 ± 1 µM | 12 ± 4 µM | 3 µM | 7 ± 5 µM | IC50 [6]: 3 µM; IC50 [7]: 3.5 µM |
| COc1cc(-c2c(C3OC(=O)C(C)=C3C)cc(OC)c(OC)c2OC)cc(OC)c1OC (stereo not shown) [CT20] | 3 µM | > 20 µM | > 20 µM | > 20 µM |  |
| COC(=O)/C(=C/c1ccccc1)CS(=O)(=O)c1ccc(C)cc1 [CT23, (Z)-methyl 3-phenyl-2-(tosylmethyl)acrylate] | 2 ± 2 µM | 5 µM | 15 µM | 6 ± 3 µM | Anticancer activity in a panel of human cancer cell lines [8]: potent anticancer activity at low micromolar concentration |
| C=C1C(=O)O[C@@H](c2ccc([N+](=O)[O-])cc2)[C@H]1c1ccc(OC)cc1 [CT11] | 2 ± 1 µM | 9 ± 5 µM | 3 µM | 2 ± 2 µM |  |
| C=C1C(=O)O[C@@H](c2ccc([N+](=O)[O-])cc2)[C@@H]1c1ccc(C)cc1 [CT12] | 4 ± 1 µM | 7 ± 5 µM | 6 µM | 3 ± 2 µM |  |
| C=C1C(=O)O[C@@H](c2ccccc2)C1c1ccccc1 (stereo in doubt) [CT14, (4S,5R)-3-methylene-4,5-diphenyl-dihydrofuran-2(3H)-one] | 2 ± 1 µM | 8 ± 1 µM | 2 µM | 2 ± 2 µM | IC50 [6]: 1 µM; IC50 [7]: 2 µM; G2/M arrest [9]: approximately 75%; % cells in G0/G1 ([9]; after 12 h): 11.9%; % cells in G2/M ([9]; after 12 h): 75.8%; % cells in S ([9]; after 12 h): 12.4%; % cells in G0/G1 ([9]; after 24 h): 12.6%; % cells in G2/M ([9]; after 24 h): 74.5%; % cells in S ([9]; after 24 h): 12.8% |
| C=C1C(=O)O[C@@H](c2ccc([N+](=O)[O-])cc2)[C@H]1c1ccc(Cl)cc1 [CT16] | 4 ± 2 µM | 18 ± 1 µM | < 1 µM | 3 ± 2 µM |  |
| C=C1C(=O)O[C@@H](c2ccccc2)[C@@H]1C [CT10] | 1 ± 1 µM | 23 ± 2 µM |  | 5 ± 3 µM |  |
